The subject of this assay is P388 leukemia ip, CD2F1 mice, survival T/C. Kind of assay: NCI In Vivo Anticancer Drug Screen. Data for tumor model P388 Leukemia (intraperitoneal) in CD2F1 (CDF1) mice. To be noted: endpoint: median survival time, higher = longer survival. The method, boiled down:
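Mice carrying the transplanted tumor received test compound or vehicle. Survival was recorded in each group, and the value is the treated-group measurement divided by that of the vehicle-treated control group.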

Setting [1] is: dose: 50.0 mg/kg/injection, schedule: Q01DX005 (ip), vehicle: Klucel (hydroxypropylcellulose) (HPC).
Where [2] appears, read: dose: 100.0 mg/kg/injection, schedule: Q01DX005 (ip), vehicle: Klucel (hydroxypropylcellulose) (HPC).
Where [3] appears, read: dose: 200.0 mg/kg/injection, schedule: Q01DX005 (ip), vehicle: Klucel (hydroxypropylcellulose) (HPC).
The mark [4] stands for this setting: dose: 50.0 mg/kg/injection, schedule: Q01DX009 (ip), vehicle: saline.
Where [5] appears, read: dose: 60.0 mg/kg/injection, schedule: Q01DX005 (ip), vehicle: saline.
[6] abbreviates: dose: 120.0 mg/kg/injection, schedule: Q01DX005 (ip), vehicle: saline.
[7] abbreviates: dose: 50.0 mg/kg/injection, schedule: Q01DX005 (ip), vehicle: saline with Tween-80.
The mark [8] stands for this setting: dose: 100.0 mg/kg/injection, schedule: Q01DX005 (ip), vehicle: saline with Tween-80.
[9] abbreviates: dose: 200.0 mg/kg/injection, schedule: Q01DX005 (ip), vehicle: saline with Tween-80.

SMILES strings stand for the structures. Values joined by “and” are separate entries in the source; they are usually repeats but may differ in a detail not shown here. Identical values can stand only once. Inconclusive results and toxic doses are left out.

For `CC(=O)NCCCCCC(=O)N(C)C`, the T/C by setting is: under setting [1], 96 % of control; under setting [2], 90 % of control; under setting [3], 98 % of control; (dose: 400.0 mg/kg/injection, schedule: Q01DX005 (ip), vehicle: Klucel (hydroxypropylcellulose) (HPC)) 98 % of control.

As for `COc1ccc2c(c1)C(C)(C#N)N(C)C(=O)C2=O` (centres undefined), the T/C is 100 % of control (dose: 100.0 mg/kg/injection, schedule: Q01DX001 (ip), vehicle: saline with Tween-80); 101 % of control (dose: 200.0 mg/kg/injection, schedule: Q01DX001 (ip), vehicle: saline with Tween-80); 96 % of control (dose: 400.0 mg/kg/injection, schedule: Q01DX001 (ip), vehicle: saline with Tween-80).

For `O=[N+]([O-])c1ccc(Sc2nc3ccccc3[nH]2)c(Cl)c1`, the T/C is 99 % of control under setting [1], 100 % of control under setting [2] and 117 % of control under setting [3].

`O=c1c2ccccc2ncn1CC1(O)CC2NCCCC2O1` (centres undefined): the T/C is 115 % of control (dose: 2.0 mg/kg/injection, schedule: Q01DX009 (ip), vehicle: distilled water + Tween-80); 117 % of control (dose: 4.0 mg/kg/injection, schedule: Q01DX009 (ip), vehicle: distilled water + Tween-80); 116 % of control (dose: 5.0 mg/kg/injection, schedule: Q01DX009 (ip), vehicle: Klucel (hydroxypropylcellulose) (HPC)); 102 % of control (dose: 8.0 mg/kg/injection, schedule: Q01DX009 (ip), vehicle: distilled water + Tween-80); 107 % of control (dose: 10.0 mg/kg/injection, schedule: Q01DX009 (ip), vehicle: Klucel (hydroxypropylcellulose) (HPC)); 117 % of control (dose: 16.0 mg/kg/injection, schedule: Q01DX009 (ip), vehicle: distilled water + Tween-80). Besides, the T/C (dose: 20.0 mg/kg/injection, schedule: Q01DX009 (ip), vehicle: Klucel (hydroxypropylcellulose) (HPC)) is 98 % of control.

On to `CCCCCCCCCCCCCCCCSC1=CC(=O)C(OC)=C(OC)C1=O`, for which the T/C runs as follows: (dose: 2.0 mg/kg/injection, schedule: Q01DX009 (ip), vehicle: Klucel (hydroxypropylcellulose) (HPC)) 97 % of control; (dose: 8.0 mg/kg/injection, schedule: Q01DX009 (ip), vehicle: Klucel (hydroxypropylcellulose) (HPC)) 98 % of control; (dose: 16.0 mg/kg/injection, schedule: Q01DX009 (ip), vehicle: Klucel (hydroxypropylcellulose) (HPC)) 100 % of control; (dose: 32.0 mg/kg/injection, schedule: Q01DX009 (ip), vehicle: Klucel (hydroxypropylcellulose) (HPC)) 105 % of control.

Turning to `CC1(C)CC(C)(C)[P+]1(C)c1ccccc1`, the T/C by setting is: (dose: 25.0 mg/kg/injection, schedule: Q01DX001 (ip), vehicle: saline) 107 % of control; (dose: 50.0 mg/kg/injection, schedule: Q01DX001 (ip), vehicle: saline) 103 % of control.

Turning to `O=C1CCCC(Br)c2ccccc21` (centres undefined), the T/C reads like this: (dose: 100.0 mg/kg/injection, schedule: Q01DX009 (ip), vehicle: distilled water + Tween-80 + alcohol) 112 % of control; (dose: 200.0 mg/kg/injection, schedule: Q01DX009 (ip), vehicle: distilled water + Tween-80 + alcohol) 115 % of control; (dose: 400.0 mg/kg/injection, schedule: Q01DX009 (ip), vehicle: distilled water + Tween-80 + alcohol) 106 % of control.

On to `O=C(Nc1ncc([N+](=O)[O-])s1)c1ccc([N+](=O)[O-])cc1`, for which the T/C is 100 % of control (dose: 12.5 mg/kg/injection, schedule: Q01DX009 (ip), vehicle: saline); 97 % of control (dose: 25.0 mg/kg/injection, schedule: Q01DX009 (ip), vehicle: saline); 104 % of control under setting [4].

Turning to `Clc1nc(Cl)nc(Nc2ncccn2)n1`, the T/C is 100 % of control (dose: 60.0 mg/kg/injection, schedule: Q01DX005 (ip), vehicle: Klucel (hydroxypropylcellulose) (HPC)) and 102 % of control (dose: 120.0 mg/kg/injection, schedule: Q01DX005 (ip), vehicle: Klucel (hydroxypropylcellulose) (HPC)).

For `O=C(c1ccc2cc(Cl)c(Cl)cc2c1)C(Cl)Cl`, the T/C is 116 % of control (dose: 1.56 mg/kg/injection, schedule: Q01DX009 (ip), vehicle: Klucel (hydroxypropylcellulose) (HPC)); 104 % of control (dose: 3.12 mg/kg/injection, schedule: Q01DX009 (ip), vehicle: Klucel (hydroxypropylcellulose) (HPC)); 101 % of control and 97 % of control (dose: 6.25 mg/kg/injection, schedule: Q01DX009 (ip), vehicle: Klucel (hydroxypropylcellulose) (HPC)); 88 % of control (dose: 12.5 mg/kg/injection, schedule: Q01DX009 (ip), vehicle: Klucel (hydroxypropylcellulose) (HPC)).

Regarding `[O-][Br+2]([O-])O`, the T/C reads like this: under setting [5], 99 % of control; under setting [6], 99 % of control.

As to `O=C(Nc1cc(Cl)cc(Cl)c1)OCCCl`, the T/C by setting is: (dose: 60.0 mg/kg/injection, schedule: Q01DX005 (ip), vehicle: saline with Tween-80) 100 % of control; (dose: 120.0 mg/kg/injection, schedule: Q01DX005 (ip), vehicle: saline with Tween-80) 98 % of control; (dose: 240.0 mg/kg/injection, schedule: Q01DX005 (ip), vehicle: saline with Tween-80) 91 % of control.

Take `O=CNCC(=O)O`: the T/C by setting is: under setting [4], 101 % of control; (dose: 100.0 mg/kg/injection, schedule: Q01DX009 (ip), vehicle: saline) 97 % of control; (dose: 200.0 mg/kg/injection, schedule: Q01DX009 (ip), vehicle: saline) 99 % of control.

In the case of `CN(C)CCSc1nc2ccccc2s1`, the T/C was 101 % of control under setting [5] and 104 % of control under setting [6].

Turning to `Cc1ccc(NC(=O)NCc2ccncc2)cc1NC(=O)NCc1ccncc1`, the T/C by setting is: (dose: 50.0 mg/kg/injection, schedule: Q01DX009 (ip), vehicle: Klucel (hydroxypropylcellulose) (HPC)) 112 % of control; (dose: 100.0 mg/kg/injection, schedule: Q01DX009 (ip), vehicle: Klucel (hydroxypropylcellulose) (HPC)) 110 % of control.

Turning to `C=CCNC(=S)NNC(=O)Cc1nc2ccccc2[nH]1`, the T/C by setting is: under setting [1], 98 % of control; under setting [2], 97 % of control; under setting [3], 92 % of control.

Consider `CN=C(N)N/N=C(\C)c1ccc2oc3ccc(/C(C)=N/NC(N)=NC)cc3c2c1`, for which the T/C runs as follows: (dose: 25.0 mg/kg/injection, schedule: Q04DX002 (ip), vehicle: saline with Tween-80) 150 % of control; (dose: 50.0 mg/kg/injection, schedule: Q04DX002 (ip), vehicle: saline with Tween-80) 150 % of control; (dose: 100.0 mg/kg/injection, schedule: Q04DX002 (ip), vehicle: saline with Tween-80) 154 % of control.

With `O=C1CCC(N2CCCCC2)CCC1(c1ccccc1)c1ccccc1` (centres undefined), the T/C was 106 % of control under setting [7], 103 % of control under setting [8] and 96 % of control under setting [9].

Regarding `C=C1C(=O)OC2/C=C(\C)C(O)/C=C\C(C)(O)CC(OC(=O)/C(C)=C/C)C12` (centres undefined), the T/C was 114 % of control (dose: 10.0 mg/kg/injection, schedule: Q01DX009 (ip), vehicle: saline); 101 % of control (dose: 20.0 mg/kg/injection, schedule: Q01DX009 (ip), vehicle: saline); 108 % of control (dose: 40.0 mg/kg/injection, schedule: Q01DX009 (ip), vehicle: saline).

As to `Cc1cc2nnc(-c3cccc([N+](=O)[O-])c3)n2c2nnnn12`, the T/C reads like this: (dose: 25.0 mg/kg/injection, schedule: Q01DX005 (ip), vehicle: saline with Tween-80) 100 % of control; under setting [7], 102 % of control; under setting [8], 98 % of control; under setting [9], 100 % of control.

On to `Cc1cc(C(=O)O)c(C)c(S(=O)(=O)O)c1`, for which the T/C (dose: 12.5 mg/kg/injection, schedule: Q01DX009 (ip), vehicle: water) was 102 % of control; the T/C (dose: 25.0 mg/kg/injection, schedule: Q01DX009 (ip), vehicle: water) was 97 % of control; the T/C (dose: 50.0 mg/kg/injection, schedule: Q01DX009 (ip), vehicle: water) was 92 % of control; the T/C (dose: 100.0 mg/kg/injection, schedule: Q01DX009 (ip), vehicle: water) was 102 % of control; the T/C (dose: 200.0 mg/kg/injection, schedule: Q01DX009 (ip), vehicle: water) was 99 % of control.

Take `CC(=O)/C=C1\N(C)c2ccccc2C1(C)C`: the T/C under setting [1] is 104 % of control, the T/C under setting [2] is 107 % of control and the T/C under setting [3] was 100 % of control.

`CC(C)OCc1cccc2ccnc(COC(C)C)c12`: the T/C is 102 % of control (dose: 100.0 mg/kg/injection, schedule: Q01DX001 (ip), vehicle: saline); 100 % of control (dose: 200.0 mg/kg/injection, schedule: Q01DX001 (ip), vehicle: saline); 95 % of control (dose: 400.0 mg/kg/injection, schedule: Q01DX001 (ip), vehicle: saline).

Values taken from PubChem BioAssay AID330 (DTP/NCI, 2004).
